“Also recorded” adds a separate entry of the source. Where two headings read alike, the source gives them in different places.
Assays:
[1] = biological target: chromatographically-purified MMP-2 (Homo sapiens (Human), UniProt P08253); assay: MMP-2 inhibition in vitro, octapeptide/HPLC; assay type: biochemical; conditions: for Ratio = IC50 test compound/IC50 standard, MMP-2: standard 1,10-phenanthroline
[2] = biological target: purified human PMN MMP-8 (Homo sapiens (Human), UniProt P22894); assay: MMP-8 inhibition, synthetic octapeptide substrate, tripeptide product by HPLC; assay type: biochemical
[3] = biological target: chromatographically-purified MMP-13 (Collagenase-3) (Homo sapiens (Human), UniProt P45452); assay: MMP-13 inhibition in vitro, octapeptide/HPLC; assay type: biochemical; conditions: for Ratio = IC50 test compound/IC50 standard, MMP-13: standard 1,10-phenanthroline
[4] = biological target: MMP-9 (human leukocyte gelatinase) (Homo sapiens (Human), UniProt P14780); assay: MMP-9 inhibition in vitro, octapeptide/HPLC; assay type: biochemical
Text: In contrast all three chemically-modified curcumins at 100 μm final concentration inhibited gelatinase activity by 68-100% (FIG. 6 and Table 6).

[5] = Solubility in aqueous solutions; assay type: physicochemical
[6] = system: neonatal rat ventricular myocytes; assay: Hydrogen peroxide induced LDH release; assay type: cell-based; conditions: 10 μM, H2O2 100 μM
Experimental: Test compounds and concentrations (MMP inhibitors, MMPi): • 1. GM-6001: 10 μM • 2. ONO-4817: 10 μM • 3.
Neonatal rat ventricular myocytes, serum starved for 24 h, were treated with the inhibitors 1 h prior to the addition of 100 μM of hydrogen peroxide (Sigma). LDH release in the conditioned media was quantified using CytoTox-ONE Homogeneous Membrane Integrity Assay reagent (Promega) at the indicated time points.

[7] = system: human monocytes; assay: Cytotoxicity in human monocytes (MTS); assay type: cell-based
[8] = system: TNF-α; assay: TNF-α production by LPS-stimulated monocytes (ELISA); assay type: cell-based, human
Experimental: (§1) Briefly, human peripheral blood monocytes (HMs) were isolated from a leukocyte concentrate by density gradient centrifugation (Lymphoprep) and the isolated HMs cultured (2 h, 37° C.) to remove non-adherent cells. The adherent HMs were cultured for 18 h (1×10^6 cells/well, 24-well plates)±endotoxin (LPS)±different compounds dissolved in DMSO (the final concentration of DMSO in the RPMI serum-free culture media with Pen./Strep. antibiotics was no greater than 0.5%). After incubation, the proinflammatory cytokines, TNFα, IL-1β, MCP-1 and IL-6 were measured in the conditioned media by ELISA and cytotoxicity was assessed by measuring the absorbance (490 nm) of formazan produced by reduction of MTS. The HMs alone ±0.1-0.5% DMSO produced minimal levels of these pro-inflammatory cytokines. However, addition of 100 ng/ml or 10 μg/ml of LPS both dramatically stimulated cytokine production.

[9] = Extractability/recovery from human serum by HPLC
Experimental: Detection of compounds & extractability/recovery from human serum (for future use to determine in vivo pharmacokinetics) was achieved using HPLC. The HPLC detection method is briefly described herein. 50 μl of buffer or human serum containing 166.67 μM, 16.67 μM and 1.67 μM of the compounds were incubated with 100 μl pre-cooled (−10° C.) extraction solvent containing CAN-MeOH-0.5M oxalic acid at a ratio of 60:30:10. The mixture was vortexed and centrifuged at 10,000 rpm for 10 min. The supernatant was then aliquoted and injected into an HPLC for analysis. Stock solutions of the compounds were made 100× in DMSO, then further diluted with buffer or serum.

[10] = biological target: MMP-2 (Mus musculus (Mouse), UniProt P33434); conditions: 15 μM; cited from earlier work
[11] = system: human monocytes; assay: Cytotoxicity in human monocytes (MTS); assay type: cell-based; remark: listed apart in the source
Experimental: as §1

Chain of chromatographically-purified MMP-2 (P08253 110-660): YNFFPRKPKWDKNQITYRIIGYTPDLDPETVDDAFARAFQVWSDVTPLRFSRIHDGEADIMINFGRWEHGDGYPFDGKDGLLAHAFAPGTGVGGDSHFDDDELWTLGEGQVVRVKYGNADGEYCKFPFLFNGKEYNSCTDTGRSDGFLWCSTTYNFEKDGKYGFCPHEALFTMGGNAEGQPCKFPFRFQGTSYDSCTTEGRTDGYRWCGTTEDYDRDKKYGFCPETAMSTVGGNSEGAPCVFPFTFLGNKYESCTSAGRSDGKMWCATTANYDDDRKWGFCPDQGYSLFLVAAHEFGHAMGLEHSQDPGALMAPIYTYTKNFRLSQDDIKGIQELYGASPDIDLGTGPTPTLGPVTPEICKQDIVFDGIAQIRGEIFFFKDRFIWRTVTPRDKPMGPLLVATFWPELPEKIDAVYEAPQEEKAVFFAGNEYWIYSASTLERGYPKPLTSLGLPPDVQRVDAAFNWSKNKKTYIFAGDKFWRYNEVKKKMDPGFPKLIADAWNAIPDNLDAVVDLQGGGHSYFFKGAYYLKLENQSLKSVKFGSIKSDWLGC
Chain of MMP-9 (human leukocyte gelatinase) (P14780 94-707): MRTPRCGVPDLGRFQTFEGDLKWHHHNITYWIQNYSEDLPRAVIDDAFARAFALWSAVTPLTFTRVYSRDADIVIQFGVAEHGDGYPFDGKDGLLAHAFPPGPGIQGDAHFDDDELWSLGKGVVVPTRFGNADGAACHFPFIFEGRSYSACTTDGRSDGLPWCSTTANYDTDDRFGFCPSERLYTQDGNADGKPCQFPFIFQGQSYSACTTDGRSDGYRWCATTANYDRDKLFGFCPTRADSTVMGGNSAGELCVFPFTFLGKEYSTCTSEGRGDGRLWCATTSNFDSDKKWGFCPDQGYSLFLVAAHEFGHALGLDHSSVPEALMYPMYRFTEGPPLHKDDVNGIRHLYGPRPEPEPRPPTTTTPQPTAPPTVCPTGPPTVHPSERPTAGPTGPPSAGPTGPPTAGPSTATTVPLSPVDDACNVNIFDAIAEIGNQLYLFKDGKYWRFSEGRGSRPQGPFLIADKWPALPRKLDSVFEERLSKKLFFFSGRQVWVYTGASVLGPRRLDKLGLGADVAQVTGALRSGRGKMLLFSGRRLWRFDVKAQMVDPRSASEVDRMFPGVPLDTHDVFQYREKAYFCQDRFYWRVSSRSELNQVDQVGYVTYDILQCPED
Chain of purified human PMN MMP-8 (P22894 101-467): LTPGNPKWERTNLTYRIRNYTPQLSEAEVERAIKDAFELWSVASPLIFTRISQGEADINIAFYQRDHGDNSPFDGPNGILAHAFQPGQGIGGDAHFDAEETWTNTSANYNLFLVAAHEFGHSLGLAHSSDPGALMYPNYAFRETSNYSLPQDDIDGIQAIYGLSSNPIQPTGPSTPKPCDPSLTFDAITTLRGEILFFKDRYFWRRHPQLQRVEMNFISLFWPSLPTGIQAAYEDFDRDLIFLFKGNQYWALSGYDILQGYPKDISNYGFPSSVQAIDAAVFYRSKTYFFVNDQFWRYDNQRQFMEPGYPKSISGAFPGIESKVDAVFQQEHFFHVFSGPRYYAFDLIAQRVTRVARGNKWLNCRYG

c1cnc2c(c1)ccc1cccnc12 [1,10-O-phenanthroline, reference compound]
IC50 ([1]; read-out: IC50 MMP-2): 70 µM
Ratio = IC50 test compound/IC50 standard, MMP-2 [1]: 1.0
IC50 ([2]; Table 1 experiments, read-out: IC50 against purified hMMP-8): 10 to 35 µM
Ratio of each IC50 to IC50 of 1,10-O-phenanthroline ([2]; hMMP-8): 1 = 35 μM 1 = 10 μM
IC50 [3]: 4 µM
Ratio = IC50 test compound/IC50 standard, MMP-13 [3]: 1.0
IC50 [4]: 9 µM

COC(=O)C(C(=O)/C=C/c1ccccc1)C(=O)/C=C/c1ccccc1 [Compound 2]
IC50 against purified hMMP-8 ([2]; Table 1 experiments): did not show a dose response; also recorded: No dose response

COC(=O)C(C(=O)/C=C/c1ccc(O)cc1)C(=O)/C=C/c1ccc(O)cc1 [Compound 3, 1,7-Bis(4-hydroxyphenyl)-4-methoxycarbonylhepta-1E,6E-dien-3,5-dione]
IC50 ([1]; read-out: IC50 MMP-2): 70 µM
Ratio = IC50 test compound/IC50 standard, MMP-2 [1]: 1.0
IC50 ([2]; Example 7 experiment, 1 mM Ca++, 37° C., read-out: IC50, human neutrophil collagenase (MMP-8)): ≤ 5 µM
IC50 [3]: 8 µM
Ratio = IC50 test compound/IC50 standard, MMP-13 [3]: 2.0
IC50 [4]: 6 µM
Solubility in aqueous solutions (comparative) [5]: more soluble in aqueous solutions than compound 1

COc1cc(/C=C/C(=O)CC(=O)/C=C/c2ccc(N(C)C)cc2)ccc1O [Compound 4]
IC50 ([1]; read-out: IC50 MMP-2): > 250 µM
Ratio = IC50 test compound/IC50 standard, MMP-2 [1]: >3.6
IC50 [3]: 250 µM
Ratio = IC50 test compound/IC50 standard, MMP-13 [3]: 62.5
IC50 [4]: 17 µM

COc1cc(/C=C/C(=O)C(C(=O)/C=C/c2ccc(O)c(OC)c2)C(=O)Nc2ccccc2)ccc1O [Compound 6, 1,7-Bis(4-hydroxy-3-methoxyphenyl)-4-N-phenylaminocarbonylhepta-1E,6E-dien-3,5-dione]
IC50 ([1]; read-out: IC50 MMP-2): 85 µM

O=C(/C=C/c1ccc(O)cc1)C(C(=O)/C=C/c1ccc(O)cc1)C(=O)Nc1ccccc1 [Compound 7, 1,7-Bis(4-hydroxyphenyl)-4-N-phenylaminocarbonylhepta-1E,6E-dien-3,5-dione]
IC50 ([1]; read-out: IC50 MMP-2): 125 µM
Ratio = IC50 test compound/IC50 standard, MMP-2 [1]: 1.8
IC50 [3]: < 1 µM
Ratio = IC50 test compound/IC50 standard, MMP-13 [3]: <0.3

CN(C)c1ccc(/C=C/C(=O)C(C(=O)/C=C/c2ccc(N(C)C)cc2)C(=O)Nc2ccccc2)cc1 [Compound 8, 1,7-Bis(4-dimethylaminophenyl)-4-N-phenylaminocarbonylhepta-1E,6E-dien-3,5-dione]
IC50 MMP-2 (μM) [1]: Unmeasurable*
IC50 [3]: 45 µM
Ratio = IC50 test compound/IC50 standard, MMP-13 [3]: 11.3

CNC(=O)[C@H](Cc1c[nH]c2ccccc12)NC(=O)[C@@H](CC(=O)NO)CC(C)C [GM-6001, reference compound]
Effect on LDH release [6]: did not affect LDH release

CCOCOC[C@H](C[C@H](C)C(=O)NO)NC(=O)c1ccc(Oc2ccccc2)cc1 [ONO-4817, reference compound]
Effect on LDH release [6]: did not affect LDH release

COc1cc(/C=C/C(=O)CC(=O)/C=C/c2ccc(O)c(OC)c2)ccc1O [curcumin]
IC50 [1]: 85 µM
Cytotoxicity Monocytes @ 5 h incubation ([7]; 10 uM): 10 uM- 0%
Cytotoxicity Monocytes @ 5 h incubation ([7]; 20 uM): 20 uM- 20%
Cytotoxicity Monocytes @ 5 h incubation ([7]; 50 uM): 50 uM- 50%
Decrease of TNFα production by endotoxin-stimulated human monocytes ([8]; 10 and 20 μM): no effect
Decrease of TNFα production by endotoxin-stimulated human monocytes ([8]; 50 and 100 μM): 80-90%
Recovery from human serum ([9]; HPLC after solvent extraction): 83-94%
recovery ([9]; human, human serum): 83 to 94%
Effect on MMP-2 activity [10]: significant inhibitory effect
IC50 [4]: 29 µM
Maximum Inhibition At 100 μM compound, MMP-9 ([4]; 100 μM): 58%
Cytotoxicity Monocytes @ 18 h incubation ([11]; 10 uM): 10 uM- 0%
Cytotoxicity Monocytes @ 18 h incubation ([11]; 20 uM): 20 uM- 20%
Cytotoxicity Monocytes @ 18 h incubation ([11]; 50 uM): 50 uM- 77%
Cytotoxicity in human monocyte culture ([11]; 50 and 100 μM): significant cytotoxicity
Solubility in aqueous solutions (comparative) [5]: insoluble

Source: patent publication US9187406B2 (The Research Foundation of State University of New York, priority 2009, dated 2015)
